Experiments:
[1] = target: T1, AR (L702H) in LNCaP cells (Homo sapiens, UniProt P10275, L702H/T878A); assay: LNCaP Androgen Receptor L702H Imaging Assay (LNCaP cells engineered by CRISPR/Cas9); type: cell-based; settings: LNCaP cells with AR L702H mutation, 24 h incubation; for DC50: concentration giving 50% of maximum degradation of AR (L702H) per curve fit; for Dmax: LNCaP, maximum degradation observed, normalized as % of positive control
T1 construct: engineered to introduce the mutation L702H into the AR gene using CRISPR/Cas9; endogenous in cells; host or cells: LNCaP cells edited by CRISPR/Cas9 at the AR gene
T1 sequence (P10275 whole entry L702H/T878A): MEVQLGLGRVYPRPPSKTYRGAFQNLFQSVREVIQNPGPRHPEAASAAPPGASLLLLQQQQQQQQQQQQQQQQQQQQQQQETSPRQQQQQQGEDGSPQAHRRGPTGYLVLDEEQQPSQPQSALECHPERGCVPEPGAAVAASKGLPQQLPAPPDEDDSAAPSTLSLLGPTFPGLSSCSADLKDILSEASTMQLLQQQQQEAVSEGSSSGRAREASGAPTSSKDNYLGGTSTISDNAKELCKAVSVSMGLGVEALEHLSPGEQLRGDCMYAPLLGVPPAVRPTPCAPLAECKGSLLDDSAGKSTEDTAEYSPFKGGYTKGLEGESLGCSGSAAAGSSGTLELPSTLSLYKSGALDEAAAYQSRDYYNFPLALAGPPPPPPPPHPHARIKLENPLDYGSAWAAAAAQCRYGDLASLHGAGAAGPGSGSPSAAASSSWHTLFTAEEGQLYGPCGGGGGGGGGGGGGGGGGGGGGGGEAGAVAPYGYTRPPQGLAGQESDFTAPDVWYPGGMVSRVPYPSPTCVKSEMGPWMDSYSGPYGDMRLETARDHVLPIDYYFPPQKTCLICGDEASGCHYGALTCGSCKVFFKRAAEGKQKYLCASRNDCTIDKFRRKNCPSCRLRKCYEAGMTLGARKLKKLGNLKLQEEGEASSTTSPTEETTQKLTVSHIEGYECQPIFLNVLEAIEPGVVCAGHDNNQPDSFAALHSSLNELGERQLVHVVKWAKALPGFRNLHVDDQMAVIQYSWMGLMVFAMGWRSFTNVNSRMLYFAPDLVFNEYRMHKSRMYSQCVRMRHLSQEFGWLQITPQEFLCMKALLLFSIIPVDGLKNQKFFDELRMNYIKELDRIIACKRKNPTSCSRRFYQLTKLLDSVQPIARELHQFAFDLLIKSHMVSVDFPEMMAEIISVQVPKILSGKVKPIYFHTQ
T1 sequence (Q96SW2 whole entry partner): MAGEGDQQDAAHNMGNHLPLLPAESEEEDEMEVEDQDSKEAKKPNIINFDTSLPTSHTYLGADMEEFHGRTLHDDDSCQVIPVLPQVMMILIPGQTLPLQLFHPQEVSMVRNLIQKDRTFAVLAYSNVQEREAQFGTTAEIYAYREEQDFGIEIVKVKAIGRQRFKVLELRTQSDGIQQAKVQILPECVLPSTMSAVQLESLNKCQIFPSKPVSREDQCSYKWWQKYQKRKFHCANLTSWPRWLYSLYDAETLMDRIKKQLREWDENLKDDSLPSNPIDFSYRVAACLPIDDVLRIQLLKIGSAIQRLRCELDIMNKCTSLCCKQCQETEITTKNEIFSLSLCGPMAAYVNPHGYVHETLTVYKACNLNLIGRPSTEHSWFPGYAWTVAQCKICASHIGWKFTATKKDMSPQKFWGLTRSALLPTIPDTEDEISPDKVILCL
How it was run: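 AR (L702H) degradation, expressed as DC50 and Dmax from curve fits normalized to a positive degrader control, was measured by high-content imaging of anti-AR immunofluorescence. The engineered LNCaP line was dosed over 12 concentrations for 24 h, 0.3% DMSO final, before PFA fixation.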

[2] = target: T2, AR (AR-full length) in LNCaP cells (Homo sapiens, UniProt P10275, T878A); assay: LNCaP Androgen Receptor Imaging Assay (immunofluorescence of endogenous nuclear AR); type: cell-based; settings: 24 h incubation; for DC50: concentration giving 50% of maximum degradation of AR per curve fit, single experiment or average of two or more; for Dmax: LNCaP, maximum degradation observed, normalized as % of positive control (prior art AR PROTAC at 3 μM)
T2 construct: the prostate cancer cell line LNCaP (expressing AR-full length); endogenous in cells; host or cells: LNCaP
T2 sequence (P10275 whole entry T878A): as the sequence (P10275 whole entry L702H/T878A) above, with H702L counted along it
T2 sequence (Q96SW2 whole entry partner): as the sequence (Q96SW2 whole entry partner) above
How it was run: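 Endogenous nuclear AR level was imaged by immunofluorescence after 24 h compound exposure (12-point dose response, 0.3% DMSO, 37° C./5% CO2) in LNCaP cells. Data were expressed as % of a 3 μM prior-art AR PROTAC control and fitted (bell fit where a hook appeared) to give DC50 and maximum degradation Dmax.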

Structure (SMILES)	DC50 [1] [nM]	Dmax [1] [%]	DC50 [2] [nM]	Dmax [2] [%]
COc1nc(N2CCN(CC3CCN(c4ccc(C5CCN(c6ccc(C)c7c(C#N)c[nH]c67)CC5)cc4)CC3)CC2)cc2c1C(=O)N(C1CCC(=O)NC1=O)C2 (stereo not shown) [Example 30, 7-(4-{4-[4-({4-[2-(2,6-Dioxopiperidin-3-yl)-4-methoxy-3-oxo-2,3-dihydro-1H-pyrrolo[3,4-c]pyridin-6-yl]piperazin-1-yl}methyl)piperidin-1-yl]phenyl}piperidin-1-yl)-4-methyl-1H-indole-3-carbonitrile]	83	83	25	98
COc1nc(N2CCN(CCCCOc3ccc(C4CCN(c5ccc(C)c6c(C#N)c[nH]c56)CC4)cc3)CC2)cc2c1C(=O)N(C1CCC(=O)NC1=O)C2 (stereo not shown) [Example 31, 7-{4-[4-(4-{4-[2-(2,6-Dioxopiperidin-3-yl)-4-methoxy-3-oxo-2,3-dihydro-1H-pyrrolo[3,4-c]pyridin-6-yl]piperazin-1-yl}butoxy)phenyl]piperidin-1-yl}-4-methyl-1H-indole-3-carbonitrile]	22	88	8	94
COc1nc(N2CCN(CCCCOc3ccc(C4CCN(c5ccc(Cl)c6c(C#N)c[nH]c56)CC4)cc3)CC2)cc2c1C(=O)N(C1CCC(=O)NC1=O)C2 (stereo not shown) [Example 32, 4-Chloro-7-{4-[4-(4-{4-[2-(2,6-dioxopiperidin-3-yl)-4-methoxy-3-oxo-2,3-dihydro-1H-pyrrolo[3,4-c]pyridin-6-yl]piperazin-1-yl}butoxy)phenyl]piperidin-1-yl}-1H-indole-3-carbonitrile]	10	100	5	99
N#Cc1c[nH]c2c(N3CCC(c4ccc(OCCCCN5CCC(n6ccc7c(N8CCC(=O)NC8=O)cccc76)CC5)cc4)CC3)ccc(F)c12 [Example 33, 7-{4-[4-(4-{4-[4-(2,4-Dioxo-1,3-diazinan-1-yl)-1H-indol-1-yl]piperidin-1-yl}butoxy)phenyl]piperidin-1-yl}-4-fluoro-1H-indole-3-carbonitrile]	33	90	12	97
COc1nc(N2CCN(CC3CCN(c4ccc(C5CCN(c6ccc(Cl)c7c(C#N)c[nH]c67)CC5)cc4)CC3)CC2)cc2c1C(=O)N(C1CCC(=O)NC1=O)C2 (stereo not shown) [Example 34, 4-Chloro-7-(4-{4-[4-({4-[2-(2,6-dioxopiperidin-3-yl)-4-methoxy-3-oxo-2,3-dihydro-1H-pyrrolo[3,4-c]pyridin-6-yl]piperazin-1-yl}methyl)piperidin-1-yl]phenyl}piperidin-1-yl)-1H-indole-3-carbonitrile]	12	102	7	98
COc1nc(N2CCN(CC3CCN(c4ccc(C5CCN(c6ccc(F)c7c(C#N)c[nH]c67)CC5)cc4)CC3)CC2)cc2c1C(=O)N(C1CCC(=O)NC1=O)C2 (stereo not shown) [Example 37, 7-(4-{4-[4-({4-[2-(2,6-Dioxopiperidin-3-yl)-4-methoxy-3-oxo-2,3-dihydro-1H-pyrrolo[3,4-c]pyridin-6-yl]piperazin-1-yl}methyl)piperidin-1-yl]phenyl}piperidin-1-yl)-4-fluoro-1H-indole-3-carbonitrile]	11	100	15	90
COc1nc(N2CCN(CC3CCN(c4ccc([C@@H]5CCCN(c6ccc(Cl)c7c(C#N)c[nH]c67)C5)cc4)CC3)CC2)cc2c1C(=O)N(C1CCC(=O)NC1=O)C2 (stereo partly drawn) [Example 38, 4-Chloro-7-[(3S)-3-{4-[4-({4-[2-(2,6-dioxopiperidin-3-yl)-4-methoxy-3-oxo-2,3-dihydro-1H-pyrrolo[3,4-c]pyridin-6-yl]piperazin-1-yl}methyl)piperidin-1-yl]phenyl}piperidin-1-yl]-1H-indole-3-carbonitrile]	12	95	9	97

From patent publication US20260274832A1, “COMPOUNDS AND THEIR USE IN TREATING CANCER” (ASTRAZENECA AB, priority 2023, published 2026)
